# Test results taken from PubChem BioAssay AID2060907 (Molecular Pharmacology Branch, DTP, NCI, 2025).
# pIC50: −log10 of the molar value. Several values for one entry are separate records, joined by “and”; a condition that tells them apart may be missing. Identical values can stand only once.
# System: 388556-164-R-J1-PDC complex spheroid viability
# Assay: Anticancer human tumor 388556-164-R-J1-PDC patient-derived colon adenocarcinoma cell line growth inhibition [RAS]
# Details: for viability, T/C: stronger effect = lower value
# Outline: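 Multi-cell-type spheroids: tumor cells plus HUVEC endothelial cells and mesenchymal stem cells. RAS-pathway inhibitors were combined with targeted agents, each dosed in half-log steps down from clinical Cmax, or from 10 microM when Cmax was unknown.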
# 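Also: spheroids exposed to compound for 7 days before readout.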
# 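For viability, T/C in this document: 100% = DMSO vehicle control luminescence.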
smiles,measurement,setting,value
CC(Nc1ccc2c(c1)OCCn1cc(N3C(=O)OCC3C(F)F)nc1-2)C(N)=O (stereo not given) + CCn1c(-c2cccnc2C(C)OC)c2c3cc(ccc31)N1CCOC(CC(NC(=O)C(C(C)C)N(C)C(=O)C3(F)CCN(C(=O)C#CC(C)(C)N(C)C)CC3)C(=O)N3CCCC(N3)C(=O)OCC(C)(C)C2)C1,pIC50,"curve of first compound, second compound 0.000949 µM",< 5.00
same,pIC50,"curve of first compound, second compound 0.003 µM",< 5.00
same,pIC50,"curve of first compound, second compound 0.00949 µM",5.02
same,pIC50,"curve of first compound, second compound 0.03 µM",5.11
same,pIC50,"curve of first compound, second compound 0.0949 µM",< 5.00
same,pIC50,"curve of first compound, second compound 0.3 µM",5.11
same,"viability, T/C","second compound 0.000949 µM, first compound 0.0316 µM",96.7%
same,"viability, T/C","second compound 0.000949 µM, first compound 0.1 µM",83.7%
same,"viability, T/C","second compound 0.000949 µM, first compound 0.316 µM",73%
same,"viability, T/C","second compound 0.000949 µM, first compound 1 µM",79.4%
same,"viability, T/C","second compound 0.000949 µM, first compound 3.16 µM",59.8%
same,"viability, T/C","second compound 0.000949 µM, first compound 10 µM",50.9%
same,"viability, T/C","second compound 0.003 µM, first compound 0.0316 µM",102%
same,"viability, T/C","second compound 0.003 µM, first compound 0.1 µM",82.3%
same,"viability, T/C","second compound 0.003 µM, first compound 0.316 µM",82.7%
same,"viability, T/C","second compound 0.003 µM, first compound 1 µM",67.4%
same,"viability, T/C","second compound 0.003 µM, first compound 3.16 µM",66.7%
same,"viability, T/C","second compound 0.003 µM, first compound 10 µM",50.1%
same,"viability, T/C","second compound 0.00949 µM, first compound 0.0316 µM",87.1%
same,"viability, T/C","second compound 0.00949 µM, first compound 0.1 µM",89.5%
same,"viability, T/C","second compound 0.00949 µM, first compound 0.316 µM",80.7%
same,"viability, T/C","second compound 0.00949 µM, first compound 1 µM",69%
same,"viability, T/C","second compound 0.00949 µM, first compound 3.16 µM",68%
same,"viability, T/C","second compound 0.00949 µM, first compound 10 µM",48.1%
same,"viability, T/C","second compound 0.03 µM, first compound 0.0316 µM",92.4%
same,"viability, T/C","second compound 0.03 µM, first compound 0.1 µM",83.6%
same,"viability, T/C","second compound 0.03 µM, first compound 0.316 µM",80.7%
same,"viability, T/C","second compound 0.03 µM, first compound 1 µM",69.6%
same,"viability, T/C","second compound 0.03 µM, first compound 3.16 µM",66.3%
same,"viability, T/C","second compound 0.03 µM, first compound 10 µM",44.4%
same,"viability, T/C","second compound 0.0949 µM, first compound 0.0316 µM",95.8%
same,"viability, T/C","second compound 0.0949 µM, first compound 0.1 µM",79.1%
same,"viability, T/C","second compound 0.0949 µM, first compound 0.316 µM",72.3%
same,"viability, T/C","second compound 0.0949 µM, first compound 1 µM",71.4%
same,"viability, T/C","second compound 0.0949 µM, first compound 3.16 µM",62.9%
same,"viability, T/C","second compound 0.0949 µM, first compound 10 µM",50.8%
same,"viability, T/C","second compound 0.3 µM, first compound 0.0316 µM",76.7%
same,"viability, T/C","second compound 0.3 µM, first compound 0.1 µM",71%
same,"viability, T/C","second compound 0.3 µM, first compound 0.316 µM",70.8%
same,"viability, T/C","second compound 0.3 µM, first compound 1 µM",64.9%
same,"viability, T/C","second compound 0.3 µM, first compound 3.16 µM",61.4%
same,"viability, T/C","second compound 0.3 µM, first compound 10 µM",46.6%
C=CC(=O)Nc1cc(Nc2nccc(-c3cn(C)c4ccccc34)n2)c(OC)cc1N(C)CCN(C)C,"viability, T/C",compound 0.01 µM,103% (2×) and 87.1% and 86.9%
same,"viability, T/C",compound 0.0316 µM,98.9% [middle of 4 runs]
same,"viability, T/C",compound 0.1 µM,88.7% [middle of 4 runs]
same,"viability, T/C",compound 0.316 µM,78.6% [middle of 4 runs]
same,"viability, T/C",compound 1 µM,64.3% [middle of 4 runs]
same,pIC50,curve of compound,< 6.00
NC1c2ccccc2OC12CCN(c1cnc3c(N4CCCc5ncccc54)n[nH]c3n1)CC2 (stereo not given) + C=CC(=O)N1CCN(c2nc(OCC3CCCN3C)nc3c(F)c(-c4nc(N)cc(C)c4C(F)(F)F)c(Cl)cc23)C(C)C1,pIC50,"curve of first compound, second compound 0.00316 µM",6.74
same,pIC50,"curve of first compound, second compound 0.01 µM",6.82
same,pIC50,"curve of first compound, second compound 0.0316 µM",6.78
same,pIC50,"curve of first compound, second compound 0.1 µM",6.64
same,pIC50,"curve of first compound, second compound 0.316 µM",6.72
same,pIC50,"curve of first compound, second compound 1 µM",6.62
same,"viability, T/C","second compound 0.00316 µM, first compound 0.0316 µM",63.9%
same,"viability, T/C","second compound 0.00316 µM, first compound 0.1 µM",55.6%
same,"viability, T/C","second compound 0.00316 µM, first compound 0.316 µM",45.8%
same,"viability, T/C","second compound 0.00316 µM, first compound 1 µM",39.4%
same,"viability, T/C","second compound 0.00316 µM, first compound 3.16 µM",44.6%
same,"viability, T/C","second compound 0.00316 µM, first compound 10 µM",38.8%
same,"viability, T/C","second compound 0.01 µM, first compound 0.0316 µM",67.4%
same,"viability, T/C","second compound 0.01 µM, first compound 0.1 µM",55.4%
same,"viability, T/C","second compound 0.01 µM, first compound 0.316 µM",39.1%
same,"viability, T/C","second compound 0.01 µM, first compound 1 µM",39.7%
same,"viability, T/C","second compound 0.01 µM, first compound 3.16 µM",44.2%
same,"viability, T/C","second compound 0.01 µM, first compound 10 µM",38.8%
same,"viability, T/C","second compound 0.0316 µM, first compound 0.0316 µM",71.1%
same,"viability, T/C","second compound 0.0316 µM, first compound 0.1 µM",54.1%
same,"viability, T/C","second compound 0.0316 µM, first compound 0.316 µM",44.1%
same,"viability, T/C","second compound 0.0316 µM, first compound 1 µM",38.7%
same,"viability, T/C","second compound 0.0316 µM, first compound 3.16 µM",39.8%
same,"viability, T/C","second compound 0.0316 µM, first compound 10 µM",32.9%
same,"viability, T/C","second compound 0.1 µM, first compound 0.0316 µM",70%
same,"viability, T/C","second compound 0.1 µM, first compound 0.1 µM",59.5%
same,"viability, T/C","second compound 0.1 µM, first compound 0.316 µM",45.7%
same,"viability, T/C","second compound 0.1 µM, first compound 1 µM",40.5%
same,"viability, T/C","second compound 0.1 µM, first compound 3.16 µM",40.1%
same,"viability, T/C","second compound 0.1 µM, first compound 10 µM",35.6%
same,"viability, T/C","second compound 0.316 µM, first compound 0.0316 µM",69.2%
same,"viability, T/C","second compound 0.316 µM, first compound 0.1 µM",54.6%
same,"viability, T/C","second compound 0.316 µM, first compound 0.316 µM",45.3%
same,"viability, T/C","second compound 0.316 µM, first compound 1 µM",41.8%
same,"viability, T/C","second compound 0.316 µM, first compound 3.16 µM",40.6%
same,"viability, T/C","second compound 0.316 µM, first compound 10 µM",35.5%
same,"viability, T/C","second compound 1 µM, first compound 0.0316 µM",70.3%
same,"viability, T/C","second compound 1 µM, first compound 0.1 µM",58.3%
same,"viability, T/C","second compound 1 µM, first compound 0.316 µM",45.9%
same,"viability, T/C","second compound 1 µM, first compound 1 µM",40%
same,"viability, T/C","second compound 1 µM, first compound 3.16 µM",34.4%
same,"viability, T/C","second compound 1 µM, first compound 10 µM",28.1%
